Data from paper PMC10680097 (Biochemistry, 2023).

Columns and labels:
C3/C5-epimerase (HS:42) = molecular target: T1, C3/C5-epimerase (HS:42) (Campylobacter jejuni, UniProt F2X7E5); test: coupled turnover of purified […] to […], D2O exchange at C3 and C5, ESI-MS; format: biochemical; details: 5.0 mM NADPH and HS:42 C4-reductase, pH 8.0, 40 h
T1 construct: gene HS42.11

[1] = system: C4-reductase (HS:51/HS:53); test: NADPH oxidation at […] nm; format: biochemical, Campylobacter jejuni; details: apparent; 300 μM NADPH, 50 mM HEPES pH 7.5, 30 °C; substrate made with Cj1427

T1 sequence (F2X7E5 entry or part of it): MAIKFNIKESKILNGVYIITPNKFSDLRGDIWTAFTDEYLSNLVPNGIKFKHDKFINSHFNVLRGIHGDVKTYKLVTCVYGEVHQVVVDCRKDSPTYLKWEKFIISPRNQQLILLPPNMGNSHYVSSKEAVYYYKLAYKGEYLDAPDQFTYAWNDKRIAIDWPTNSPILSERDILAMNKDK

In the case of `Nc1nc2c(ncn2[C@@H]2O[C@H](COP(=O)(O)OP(=O)(O)O[C@H]3O[C@H]([C@H](O)CO)C(=O)[C@H](O)[C@@H]3O)[C@@H](O)[C@H]2O)c(=O)[nH]1` [compound 22, GDP-D-glycero-4-keto-α-D-lyxo-heptose], the “coupled turnover of purified 22 to 30, D2O exchange at C3 and C5, ESI-MS” value (C3/C5-epimerase (HS:42)) is reported as “Epimerases from the same serotype of each C4-reductase were used for each reaction” and the Km [1] is reported as 53 ± 6 µM.
